Test results as given in US8501946B2 (Glaxo Group Limited, priority 2009, dated 2013).

Biological target: T1, human recombinant P2X7 receptors (Homo sapiens, UniProt Q99572)
T1 construct: expressed in transfected cells
T1 sequence (Q99572 1-595): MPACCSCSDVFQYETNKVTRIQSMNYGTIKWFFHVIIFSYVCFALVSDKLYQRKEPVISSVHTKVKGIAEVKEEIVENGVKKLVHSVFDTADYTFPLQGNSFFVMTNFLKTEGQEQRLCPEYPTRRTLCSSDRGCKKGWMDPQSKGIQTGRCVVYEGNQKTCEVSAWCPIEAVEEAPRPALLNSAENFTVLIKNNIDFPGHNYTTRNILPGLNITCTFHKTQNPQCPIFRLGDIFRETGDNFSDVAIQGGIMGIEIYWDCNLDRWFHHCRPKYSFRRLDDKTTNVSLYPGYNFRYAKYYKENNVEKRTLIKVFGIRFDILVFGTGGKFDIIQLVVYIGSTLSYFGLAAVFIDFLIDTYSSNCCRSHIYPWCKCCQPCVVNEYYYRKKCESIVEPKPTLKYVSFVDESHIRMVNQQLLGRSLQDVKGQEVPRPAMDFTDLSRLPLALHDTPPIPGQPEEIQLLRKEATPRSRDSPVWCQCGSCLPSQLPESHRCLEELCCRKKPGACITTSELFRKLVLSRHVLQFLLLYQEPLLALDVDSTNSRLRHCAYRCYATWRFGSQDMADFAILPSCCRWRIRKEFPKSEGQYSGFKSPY
Assay: Ethidium Accumulation Assay 1 (HEK293 cells, ATP-induced ethidium uptake)
Type: cell-based
Conditions: HEK293 cells expressing human P2X7; 1 mM ATP; sometimes mean of more than one measurement; read-out: Assay 1 (antagonist pIC50 for blocking ATP responses) (converted)

Row | SMILES | IC50
1 | Cc1cccc(-c2nnc3n2CCN(C(=O)c2cccc(C(F)(F)F)c2Cl)C3)n1 [Example 26, 7-{[2-chloro-3-(trifluoromethyl)phenyl]carbonyl}-3-(6-methyl-2-pyridinyl)-5,6,7,8-tetrahydro[1,2,4]triazolo [4,3-a]pyrazine] | < 10 nM
2 | O=C(c1cccc(C(F)(F)F)c1Cl)N1CCn2c(nnc2-c2cscn2)C1 [Example 42, 7-{[2-chloro-3-(trifluoromethyl)phenyl]carbonyl}-3-(1,3-thiazol-4-yl)-5,6,7,8-tetrahydro[1,2,4]triazolo[4,3-a]pyrazine] | < 10 nM
3 | Cc1cccnc1-c1nnc2n1CCN(C(=O)c1cccc(Cl)c1Cl)C2 [Example 66, 7-[(2,3-dichlorophenyl)carbonyl]-3-(3-methyl-2-pyridinyl)-5,6,7,8-tetrahydro[1,2,4]triazolo [4,3-a]pyrazine] | < 100 nM
4 | Cn1nccc1-c1nnc2n1CCN(C(=O)c1cccc(C(F)(F)F)c1Cl)C2 [Example 68, 7-{[2-chloro-3-(trifluoromethyl)phenyl]carbonyl}-3-(1-methyl-1H-pyrazol-5-yl)-5,6,7,8-tetrahydro[1,2,4]triazolo [4,3-a]pyrazine] | < 100 nM
5 | O=C(c1cccc(C(F)(F)F)c1Cl)N1CCn2c(nnc2N2CCCC2)C1 [Example 19, 7-{[2-chloro-3-(trifluoromethyl)phenyl]carbonyl}-3-(1-pyrrolidinyl)-5,6,7,8-tetrahydro[1,2,4]triazolo [4,3-a]pyrazine] | < 100 nM
6 | O=C(c1cccc(C(F)(F)F)c1Cl)N1CCn2c(nnc2N2CCOCC2)C1 [Example 18, 7-{[2-Chloro-3-(trifluoromethyl)phenyl]carbonyl}-3-(4-morpholinyl)-5,6,7,8-tetrahydro[1,2,4]triazolo[4,3-a]pyrazine] | < 501 nM
7 | O=C(c1ccccc1Cl)N1CCn2c(nnc2-c2cscn2)C1 [Example 103, 7-[(2-chlorophenyl)carbonyl]-3-(1,3-thiazol-4-yl)-5,6,7,8-tetrahydro[1,2,4]triazolo [4,3-a]pyrazine] | < 10 nM

Biological target: T1, human recombinant P2X7 receptors
Assay: Ethidium Accumulation Assay 2 (HEK293 cells, ATP-induced ethidium uptake)
Type: cell-based
Conditions: HEK293 cells expressing human P2X7; sometimes mean of more than one measurement; read-out: Assay 2 (antagonist pIC50 for blocking ATP responses) (converted)
Method: Eithidium Accumulation Assay 2
Human Embryonic Kidney (HEK) 293 cells, stably expressing human recombinant P2X7 receptors, were grown in poly-D-lysine pretreated 96 well plates for 24 hours at 37° C.
The cells were washed with assay buffer (100 μL), before addition of 25 μL of assay buffer and then 25 ul of assay buffer containing the putative P2X7 receptor antagonist compound. The cells were then incubated at room temperature (19-21° C.) for 30 min before addition of ATP solution (50 μM). […] Antagonist pIC50 values for blocking ATP responses were determined using iterative curve fitting techniques.

Row | SMILES | IC50
8 | O=C(c1ccc(Cl)c(F)c1Cl)N1CCn2c(nnc2-c2nccs2)C1 [Example 187, 7-[(2,4-Dichloro-3-fluorophenyl)carbonyl]-3-(1,3-thiazol-2-yl)-5,6,7,8-tetrahydro[1,2,4]triazolo[4,3-a]pyrazine] | < 10 nM
9 | O=C(c1cccc(C(F)(F)F)c1Cl)N1CCn2c(nnc2-c2ncccc2O)C1 [Example 166, 2-(7-{[2-Chloro-3-(trifluoromethyl)phenyl]carbonyl}-5,6,7,8-tetrahydro[1,2,4]triazolo[4,3-a]pyrazin-3-yl)-3-pyridinol] | < 10 nM
10 | Cc1c(C(=O)N2CCn3c(nnc3-c3cnccn3)C2)ccc(F)c1F [Example 151, 7-[(3,4-difluoro-2-methylphenyl)carbonyl]-3-(2-pyrazinyl)-5,6,7,8-tetrahydro[1,2,4]triazolo[4,3-a]pyrazine] | < 10 nM
11 | Cc1ccc(C(=O)N2CCn3c(nnc3-c3cnccn3)C2)c(C(F)(F)F)c1 [Example 148, 7-{[4-methyl-2-(trifluoromethyl)phenyl]carbonyl}-3-(2-pyrazinyl)-5,6,7,8-tetrahydro[1,2,4]triazolo[4,3-a]pyrazine] | < 501 nM
12 | COc1cccc(-c2nnc3n2CCN(C(=O)c2ccc(Cl)c(F)c2Cl)C3)n1 [Example 176, 7-[(2,4-dichloro-3-fluorophenyl)carbonyl]-3-[6-(methyloxy)-2-pyridinyl]-5,6,7,8-tetrahydro[1,2,4]triazolo[4,3-a]pyrazine] | < 100 nM
13 | Cc1csnc1-c1nnc2n1CCN(C(=O)c1ccc(Cl)c(F)c1Cl)C2 [Example 203, 7-[(2,4-dichloro-3-fluorophenyl)carbonyl]-3-(4-methyl-3-isothiazolyl)-5,6,7,8-tetrahydro[1,2,4]triazolo[4,3-a]pyrazine] | < 100 nM
14 | Cc1c(C(=O)N2CCn3c(nnc3-c3cnccn3)C2)ccc(F)c1Cl [Example 146, 7-[(3-chloro-4-fluoro-2-methylphenyl)carbonyl]-3-(2-pyrazinyl)-5,6,7,8-tetrahydro[1,2,4]triazolo[4,3-a]pyrazine] | < 10 nM
15 | O=C(c1ccc(F)c(Cl)c1Cl)N1CCn2c(nnc2-c2ncns2)C1 [Example 169, 7-[(2,3-dichloro-4-fluorophenyl)carbonyl]-3-(1,2,4-thiadiazol-5-yl)-5,6,7,8-tetrahydro[1,2,4]triazolo[4,3-a]pyrazine] | < 10 nM
16 | O=C(c1ccc(Cl)c(F)c1Cl)N1CCn2c(nnc2-c2cnsn2)C1 [Example 190, 7-[(2,4-Dichloro-3-fluorophenyl)carbonyl]-3-(1,2,5-thiadiazol-3-yl)-5,6,7,8-tetrahydro[1,2,4]triazolo[4,3-a]pyrazine] | < 10 nM
17 | O=C(c1ccc(F)cc1Cl)N1CCn2c(nnc2-c2nccs2)C1 [Example 144, 7-[(2-chloro-4-fluorophenyl)carbonyl]-3-(1,3-thiazol-2-yl)-5,6,7,8-tetrahydro[1,2,4]triazolo[4,3-a]pyrazine] | < 100 nM
18 | Cc1cc(Cl)ccc1C(=O)N1CCn2c(nnc2-c2cnccn2)C1 [Example 145, 7-[(4-chloro-2-methylphenyl)carbonyl]-3-(2-pyrazinyl)-5,6,7,8-tetrahydro[1,2,4]triazolo[4,3-a]pyrazine] | < 100 nM
19 | O=C(c1ccc(Cl)cc1Cl)N1CCn2c(nnc2-c2ncns2)C1 [Example 205, 7-[(2,4-dichlorophenyl)carbonyl]-3-(1,2,4-thiadiazol-5-yl)-5,6,7,8-tetrahydro[1,2,4]triazolo[4,3-a]pyrazine] | < 100 nM
20 | O=C(c1ccc(Cl)c(F)c1Cl)N1CCn2c(nnc2-c2ccns2)C1 [Example 178, 7-[(2,4-dichloro-3-fluorophenyl)carbonyl]-3-(5-isothiazolyl)-5,6,7,8-tetrahydro[1,2,4]triazolo[4,3-a]pyrazine] | < 100 nM
21 | Cc1c(F)ccc(C(=O)N2CCn3c(nnc3-c3cnccn3)C2)c1Cl [Example 153, 7-[(2-chloro-4-fluoro-3-methylphenyl)carbonyl]-3-(2-pyrazinyl)-5,6,7,8-tetrahydro[1,2,4]triazolo[4,3-a]pyrazine] | < 10 nM
22 | N#Cc1c(Cl)cccc1C(=O)N1CCn2c(nnc2-c2ccccn2)C1 [Example 204, 2-Chloro-6-{[3-(2-pyridinyl)-5,6-dihydro[1,2,4]triazolo[4,3-a]pyrazin-7(8H)-yl]carbonyl}benzonitrile] | < 10 nM
23 | O=C(c1cccc(C(F)(F)F)c1Cl)N1CCn2c(nnc2-c2ncns2)C1 [Example 164, 7-{[2-chloro-3-(trifluoromethyl)phenyl]carbonyl}-3-(1,2,4-thiadiazol-5-yl)-5,6,7,8-tetrahydro[1,2,4]triazolo[4,3-a]pyrazine] | < 10 nM
24 | O=C(c1ccc(Cl)c(F)c1Cl)N1CCn2c(nnc2-c2cncs2)C1 [Example 185, 7-[(2,4-Dichloro-3-fluorophenyl)carbonyl]-3-(1,3-thiazol-5-yl)-5,6,7,8-tetrahydro[1,2,4]triazolo[4,3-a]pyrazine] | < 100 nM
25 | Cc1csc(-c2nnc3n2CCN(C(=O)c2ccc(Cl)c(F)c2Cl)C3)n1 [Example 191, 7-[(2,4-Dichloro-3-fluorophenyl)carbonyl]-3-(4-methyl-1,3-thiazol-2-yl)-5,6,7,8-tetrahydro[1,2,4]triazolo[4,3-a]pyrazine] | < 100 nM
26 | Cc1c(C(=O)N2CCn3c(nnc3-c3nccs3)C2)ccc(F)c1Cl [Example 201, 7-[(3-Chloro-4-fluoro-2-methylphenyl)carbonyl]-3-(1,3-thiazol-2-yl)-5,6,7,8-tetrahydro[1,2,4]triazolo[4,3-a]pyrazine] | < 10 nM
27 | Cc1c(Cl)cccc1C(=O)N1CCn2c(nnc2-c2nccs2)C1 [Example 200, 7-[(3-Chloro-2-methylphenyl)carbonyl]-3-(1,3-thiazol-2-yl)-5,6,7,8-tetrahydro[1,2,4]triazolo[4,3-a]pyrazine] | < 100 nM
28 | [2H]c1ccc(-c2nnc3n2CCN(C(=O)c2ccc(Cl)c(F)c2Cl)C3)nc1 [Example 183, 7-[(2,4-Dichloro-3-fluorophenyl)carbonyl]-3-(2-pyridinyl)-5,6,7,8-tetrahydro[1,2,4]triazolo[4,3-a]pyrazine-d1] | < 10 nM
29 | Cc1ccc(-c2nnc3n2CCN(C(=O)c2ccc(F)c(Cl)c2Cl)C3)o1 [Example 167, 7-[(2,3-Dichloro-4-fluorophenyl)carbonyl]-3-(5-methyl-2-furanyl)-5,6,7,8-tetrahydro[1,2,4]triazolo[4,3-a]pyrazine] | < 100 nM
30 | Cc1c(C(=O)N2CCn3c(nnc3-c3ncns3)C2)ccc(F)c1Cl [Example 193, 7-[(3-Chloro-4-fluoro-2-methylphenyl)carbonyl]-3-(1,2,4-thiadiazol-5-yl)-5,6,7,8-tetrahydro[1,2,4]triazolo[4,3-a]pyrazine] | < 10 nM
